Test results reported in patent publication US20260356804A1, “SODIUM CHANNEL BLOCKING COMPOUNDS, DERIVATIVES THEREOF, AND METHODS OF THEIR USE” (LATIGO BIOTHERAPEUTICS, INC., priority 2022, published 2026).
Counter-ions that a name gives are not always drawn. Like-named read-outs stand apart in the source and are kept apart here.

Target: T1, human Nav1.8/b3 (Homo sapiens, UniProt Q9Y5Y9)
T1 construct: expressed in transfected cells; host or cells: CHO
Assay: Compound Profiling Human NaV1.8/β3 Cell Line—SyncroPatch384PE Assay (automated patch clamp, stably transfected CHO cells)
Assay type: cell-based
Conditions: Nav1.8/b3 CHO cells

[1] = P1 (IC50, resting state block), P1 measurement, resting state block, holding potential −120 mV, second set of compounds
[2] = P2 (IC50, inactivated state block), P2 measurement, inactivated state block, inactivation step −35 mV 10 sec, second set of compounds
[3] = P1 (IC50, resting state block), P1 measurement, resting state block, holding potential −120 mV, fourth set of compounds
[4] = P2 (IC50, inactivated state block), P2 measurement, inactivated state block, inactivation step −35 mV 10 sec, fourth set of compounds
[5] = P1 (IC50, resting state block), P1 measurement, resting state block, holding potential −120 mV, third set of compounds
[6] = P2 (IC50, inactivated state block), P2 measurement, inactivated state block, inactivation step −35 mV 10 sec, third set of compounds

T1 sequence (Q9Y5Y9 whole entry): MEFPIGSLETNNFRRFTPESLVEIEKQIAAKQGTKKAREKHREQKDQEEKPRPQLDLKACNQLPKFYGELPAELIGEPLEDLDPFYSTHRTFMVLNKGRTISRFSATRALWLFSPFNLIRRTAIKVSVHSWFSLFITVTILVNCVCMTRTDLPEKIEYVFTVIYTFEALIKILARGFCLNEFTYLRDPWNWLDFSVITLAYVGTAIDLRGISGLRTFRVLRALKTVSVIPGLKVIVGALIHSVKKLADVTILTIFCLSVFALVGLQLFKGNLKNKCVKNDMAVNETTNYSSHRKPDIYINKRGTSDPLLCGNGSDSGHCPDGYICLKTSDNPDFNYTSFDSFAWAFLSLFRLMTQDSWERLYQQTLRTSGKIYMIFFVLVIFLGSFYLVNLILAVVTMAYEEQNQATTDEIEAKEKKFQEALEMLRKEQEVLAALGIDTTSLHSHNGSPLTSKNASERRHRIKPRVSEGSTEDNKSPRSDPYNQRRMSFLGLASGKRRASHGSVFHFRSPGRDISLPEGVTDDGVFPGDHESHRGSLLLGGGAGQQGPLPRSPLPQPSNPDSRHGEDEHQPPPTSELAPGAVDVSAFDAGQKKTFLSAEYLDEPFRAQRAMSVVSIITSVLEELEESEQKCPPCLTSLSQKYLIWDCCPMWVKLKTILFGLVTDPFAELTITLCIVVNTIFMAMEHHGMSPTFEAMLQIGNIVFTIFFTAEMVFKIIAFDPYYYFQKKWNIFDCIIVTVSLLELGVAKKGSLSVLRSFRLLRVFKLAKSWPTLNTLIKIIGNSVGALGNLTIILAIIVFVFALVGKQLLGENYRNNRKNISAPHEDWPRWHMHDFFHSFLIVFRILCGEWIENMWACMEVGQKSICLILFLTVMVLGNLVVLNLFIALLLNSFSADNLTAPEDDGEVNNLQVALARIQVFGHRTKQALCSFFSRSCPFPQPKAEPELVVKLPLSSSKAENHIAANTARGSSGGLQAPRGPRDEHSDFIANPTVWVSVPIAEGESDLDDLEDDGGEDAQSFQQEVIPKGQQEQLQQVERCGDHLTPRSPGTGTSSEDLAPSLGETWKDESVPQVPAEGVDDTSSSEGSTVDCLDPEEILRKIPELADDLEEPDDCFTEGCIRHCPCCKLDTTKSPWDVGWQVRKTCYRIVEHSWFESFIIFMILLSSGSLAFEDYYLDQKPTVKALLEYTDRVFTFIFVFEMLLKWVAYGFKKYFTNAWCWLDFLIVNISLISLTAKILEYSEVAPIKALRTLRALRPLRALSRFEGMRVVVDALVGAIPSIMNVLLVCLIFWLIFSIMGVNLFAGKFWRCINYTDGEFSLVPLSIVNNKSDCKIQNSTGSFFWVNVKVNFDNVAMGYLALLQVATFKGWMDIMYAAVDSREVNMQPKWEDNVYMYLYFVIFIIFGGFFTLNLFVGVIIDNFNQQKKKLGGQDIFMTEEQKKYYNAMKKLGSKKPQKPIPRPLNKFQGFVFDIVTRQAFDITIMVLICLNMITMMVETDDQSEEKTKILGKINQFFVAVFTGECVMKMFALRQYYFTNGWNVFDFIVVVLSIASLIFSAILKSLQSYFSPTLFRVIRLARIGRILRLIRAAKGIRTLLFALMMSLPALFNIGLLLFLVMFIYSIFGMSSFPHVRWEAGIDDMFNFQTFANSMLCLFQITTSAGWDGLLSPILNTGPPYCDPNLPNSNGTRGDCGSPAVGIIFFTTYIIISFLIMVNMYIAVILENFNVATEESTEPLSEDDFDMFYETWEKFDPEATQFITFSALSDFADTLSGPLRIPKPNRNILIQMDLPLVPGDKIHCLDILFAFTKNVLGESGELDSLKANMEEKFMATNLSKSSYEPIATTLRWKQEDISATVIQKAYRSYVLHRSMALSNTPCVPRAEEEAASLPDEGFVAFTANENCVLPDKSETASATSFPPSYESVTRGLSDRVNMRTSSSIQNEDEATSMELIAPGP
T1 sequence (Q9NY72 23-215 partner): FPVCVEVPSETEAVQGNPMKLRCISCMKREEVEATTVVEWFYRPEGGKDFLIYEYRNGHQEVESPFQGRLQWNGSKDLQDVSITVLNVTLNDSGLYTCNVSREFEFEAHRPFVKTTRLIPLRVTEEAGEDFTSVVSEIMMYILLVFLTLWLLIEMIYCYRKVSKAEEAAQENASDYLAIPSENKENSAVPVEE

SMILES | IC50 [1] [nM] | IC50 [2] [nM] | IC50 [3] [nM] | IC50 [4] [nM] | further results
Cc1nc(F)ccc1Oc1ccc(C(F)(F)F)c(F)c1C(=O)Nc1cccc([S@@](C)(=O)=NC(=O)[C@@H](C)O)c1 [Example 19B, 2-fluoro-6-((6-fluoro-2-methylpyridin-3-yl)oxy)-N-(3-((R)—N—((R)-2-hydroxypropanoyl)-S-methylsulfonimidoyl)phenyl)-3-(trifluoromethyl)benzamide] | < 5 | < 5 |  |  | 
Cc1nc(F)ccc1Oc1nnc(C(F)(F)F)c(C)c1C(=O)Nc1cccc([S@@](C)(=O)=NC(=O)[C@@H](C)O)c1 [Example 19D, 3-((6-fluoro-2-methylpyridin-3-yl)oxy)-N-(3-((R)—N—((R)-2-hydroxypropanoyl)-S-methylsulfonimidoyl)phenyl)-5-methyl-6-(trifluoromethyl)pyridazine-4-carboxamide] |  |  | 5 to 50 | 5 to 50 | 
COc1cc(C#N)ccc1Oc1ncc(-c2ccc(C#N)cc2)c(C)c1C(=O)Nc1cccc([S@](C)(=N)=O)c1 [Example 20C, (R)-2-(4-cyano-2-methoxyphenoxy)-5-(4-cyanophenyl)-4-methyl-N-(3-(S-methylsulfonimidoyl)phenyl)nicotinamide] |  |  |  |  | IC50 [5]: 5 to 50 nM; IC50 [6]: 5 to 50 nM
Cc1nc(F)ccc1Oc1nnc(C(F)(F)F)c(C)c1C(=O)Nc1cccc([S@@](C)(=O)=NC(=O)CO)c1 [Example 20D, (R)-3-((6-fluoro-2-methylpyridin-3-yl)oxy)-N-(3-(N-(2-hydroxyacetyl)-S-methylsulfonimidoyl)phenyl)-5-methyl-6-(trifluoromethyl)pyridazine-4-carboxamide] |  |  | 5 to 50 | 5 to 50 | 
Cc1nc(F)ccc1Oc1ccc(C(F)(F)F)c(F)c1C(=O)Nc1cccc([S@@](C)(=O)=NC(=O)[C@@H]2CCCN2)c1 [Example 21B, (S)—N—((R)-(3-(2-fluoro-6-((6-fluoro-2-methylpyridin-3-yl)oxy)-3-(trifluoromethyl)benzamido)phenyl)(methyl)(oxo)-λ^6-sulfaneylidene)pyrrolidine-2-carboxamide] | 5 to 50 | 5 to 50 |  |  | 
COc1cc(C#N)ccc1Oc1ncc(-c2ccc(C)cc2)c(C)c1C(=O)Nc1cccc([S@](C)(=N)=O)c1 [Example 21C, (R)-2-(4-cyano-2-methoxyphenoxy)-4-methyl-N-(3-(S-methylsulfonimidoyl)phenyl)-5-(p-tolyl)nicotinamide] |  |  |  |  | IC50 [5]: < 5 nM; IC50 [6]: < 5 nM
Cc1nc(F)ccc1Oc1nnc(C(F)(F)F)c(C)c1C(=O)Nc1cccc([S@@](C)(=O)=NC(=O)[C@@H](C)N)c1 [Example 21D, N-(3-((R)—N-(D-alanyl)-S-methylsulfonimidoyl)phenyl)-3-((6-fluoro-2-methylpyridin-3-yl)oxy)-5-methyl-6-(trifluoromethyl)pyridazine-4-carboxamide] |  |  | < 5 | < 5 | 
COc1cc(C#N)ccc1Oc1ncc(-c2ccc(C)cn2)c(C)c1C(=O)Nc1cccc([S@](C)(=N)=O)c1 [Example 22C, (R)-6-(4-cyano-2-methoxyphenoxy)-4,5-dimethyl-N-(3-(S-methylsulfonimidoyl)phenyl)-[2,3-bipyridine]-5-carboxamide] |  |  |  |  | IC50 (P1 measurement, resting state block, holding potential −120 mV, third set of compounds, read-out: P1 (IC50, resting state block)): 50 to 100 nM; IC50 (P2 measurement, inactivated state block, inactivation step −35 mV 10 sec, third set of compounds, read-out: P2 (IC50, inactivated state block)): 50 to 100 nM
COc1cc(C#N)ccc1Oc1ncc(-c2ccc(C(F)F)cc2)c(C)c1C(=O)Nc1cccc([S@](C)(=N)=O)c1 [Example 23C, (R)-2-(4-cyano-2-methoxyphenoxy)-5-(4-(difluoromethyl)phenyl)-4-methyl-N-(3-(S-methylsulfonimidoyl)phenyl)nicotinamide] |  |  |  |  | IC50 [5]: < 5 nM; IC50 [6]: < 5 nM
COc1cc(C#N)ccc1Oc1ncc(Br)c(C)c1C(=O)Nc1cccc([S@](C)(=N)=O)c1 [Example 24C, (R)-5-bromo-2-(4-cyano-2-methoxyphenoxy)-4-methyl-N-(3-(S-methylsulfonimidoyl)phenyl)nicotinamide] |  |  |  |  | IC50 [5]: < 5 nM; IC50 [6]: < 5 nM
COc1cc(C#N)ccc1Oc1ncc(Cl)c(C)c1C(=O)Nc1cccc(S(C)(=N)=O)c1 (centres unmarked) [Example 25C, 5-chloro-2-(4-cyano-2-methoxyphenoxy)-4-methyl-N-(3-(S-methylsulfonimidoyl)phenyl)nicotinamide] |  |  |  |  | IC50 [5]: < 5 nM; IC50 [6]: < 5 nM
COc1cc(C#N)ccc1Oc1ncc(Cl)c(C)c1C(=O)Nc1cccc([S@](C)(=N)=O)c1 [Example 26C, (R)-5-chloro-2-(4-cyano-2-methoxyphenoxy)-4-methyl-N-(3-(S-methylsulfonimidoyl)phenyl)nicotinamide] |  |  |  |  | IC50 [5]: 5 to 50 nM; IC50 [6]: 5 to 50 nM

Further lines, with some results ahead:

IC50 [1] [nM] | IC50 [2] [nM] | IC50 [3] [nM] | IC50 [4] [nM] | SMILES | further results
< 5 | < 5 |  |  | Cc1nc(F)ccc1Oc1ccc(C(F)(F)F)c(C)c1C(=O)Nc1cccc([S@@](C)(=O)=NC(=O)[C@@H]2CCCN2)c1 [Example 22B] | 
 |  | < 5 | < 5 | Cc1nc(F)ccc1Oc1ncc(C(F)(F)F)c(C)c1C(=O)Nc1cccc([S@@](C)(=O)=NC(=O)[C@@H]2CCCN2)c1 [Example 22D, N-(3-((R)—N-(L-prolyl)-S-methylsulfonimidoyl)phenyl)-2-((6-fluoro-2-methylpyridin-3-yl)oxy)-4-methyl-5-(trifluoromethyl)nicotinamide] | 
< 5 | < 5 |  |  | Cc1nc(F)ccc1Oc1ccc(C(F)(F)F)c(C)c1C(=O)Nc1cccc([S@@](C)(=O)=NC(=O)[C@H](C)O)c1 [Example 23B] | 
 |  | < 5 | < 5 | Cc1nc(F)ccc1Oc1ncc(C(F)(F)F)c(C)c1C(=O)Nc1cccc([S@@](C)(=O)=NC(=O)[C@H]2CCCN2)c1 [Example 23D, N-(3-((R)—N-(D-prolyl)-S-methylsulfonimidoyl)phenyl)-2-((6-fluoro-2-methylpyridin-3-yl)oxy)-4-methyl-5-(trifluoromethyl)nicotinamide formate] | 
< 5 | < 5 |  |  | Cc1nc(F)ccc1Oc1ccc(C(F)(F)F)c(C)c1C(=O)Nc1cccc([S@@](C)(=O)=NC(=O)[C@@H](C)N)c1 [Example 24B] | 
 |  | 5 to 50 | 5 to 50 | Cc1nc(F)ccc1Oc1nnc(C(F)(F)F)c(C)c1C(=O)Nc1cccc([S@@](C)(=O)=NC(=O)CN)c1 [Example 24D, (R)-3-((6-fluoro-2-methylpyridin-3-yl)oxy)-N-(3-(N-glycyl-S-methylsulfonimidoyl)phenyl)-5-methyl-6-(trifluoromethyl)pyridazine-4-carboxamide] | 
< 5 | < 5 |  |  | CNCC(=O)N=[S@](C)(=O)c1cccc(NC(=O)c2c(Oc3ccc(F)nc3C)ccc(C(F)(F)F)c2C)c1 [Example 25B] | 
 |  | < 5 | < 5 | CNCC(=O)N=[S@](C)(=O)c1cccc(NC(=O)c2c(Oc3ccc(F)nc3C)nnc(C(F)(F)F)c2C)c1 [Example 25D, (R)-3-((6-fluoro-2-methylpyridin-3-yl)oxy)-5-methyl-N-(3-(S-methyl-N-(methylglycyl)sulfonimidoyl)phenyl)-6-(trifluoromethyl)pyridazine-4-carboxamide] | 
< 5 | < 5 |  |  | Cc1nc(F)ccc1Oc1ccc(C(F)(F)F)c(C)c1C(=O)Nc1cccc([S@@](C)(=O)=NC(=O)CN)c1 [Example 26B] | 
 |  | < 5 | < 5 | Cc1nc(F)ccc1Oc1nnc(C(F)(F)F)c(C)c1C(=O)Nc1cccc([S@@](C)(=O)=NC(=O)[C@@H]2CCCN2)c1 [Example 26D, N-(3-((R)—N-(L-prolyl)-S-methylsulfonimidoyl)phenyl)-3-((6-fluoro-2-methylpyridin-3-yl)oxy)-5-methyl-6-(trifluoromethyl)pyridazine-4-carboxamide] | 
